Measurements as given in patent US7462614B2, “Imidazotriazine compounds” (Smithkline Beecham Corporation, priority 2003, dated 2008).

Target: T1, truncated human PLK1 (kinase domain) (Homo sapiens, UniProt P53350)
T1 construct: made in house; host or cells: baculovirus-infected T. ni insect cells
Assay: Assay for Inhibition of PLK1 (33P SPA enzyme activity)
Type: biochemical
Details: 1 μM ATP, 2 nM enzyme; read-out: Ave pIC50 PLK Enzyme Inhibition (converted)
Description: I. Assay for Inhibition of PLK1
A. Preparation of 6× N-Terminal His-Tagged PLK Kinase Domain
All procedures are performed at 4° C. Cells are lysed in 25 mM HEPES, 200 mM NaCl, 25 mM imidazole; pH 8.0. The homogenate is centrifuged at 14K rpm in a SLA-1500 rotor for 40 min and the supernatant filtered through a 1.2 micron filter. The supernatant is loaded onto a Nickel chelating Sepharose (Amersham Pharmacia) column and washed with 25 mM HEPES, 500 mM NaCl, 25 mM imidazole; pH 8.0. […] PLK is concentrated using a 10 kDa molecular weight cutoff membrane and then loaded onto a Superdex 75 gel filtration (Amersham BioSciences) column equilibrated in 25 mM HEPES, 1 mM DTT, 500 mM NaCl; pH 8.0. Fractions containing PLK are determined by SDS-PAGE. PLK is pooled, aliquoted and stored at […]. Samples are quality controlled using mass spectrometry.
B. Enzyme Activity±Inhibitors is Determined As Follows:
Compounds are added to the plate (1 μL in 100% DMSO).
Immediately upon addition of enzyme and thorough mixing, add 20 uL per well into 384-well white plates containing compounds and controls. […] The enzymatic reaction is stopped with 50 μl of bead mix (50 mM EDTA, 2 mg/ml Streptavidin-coated SPA beads in Standard Dulbecco's PBS (without Mg^2+and Ca^2+), and 60 μM ATP).

T1 sequence (P53350 21-346): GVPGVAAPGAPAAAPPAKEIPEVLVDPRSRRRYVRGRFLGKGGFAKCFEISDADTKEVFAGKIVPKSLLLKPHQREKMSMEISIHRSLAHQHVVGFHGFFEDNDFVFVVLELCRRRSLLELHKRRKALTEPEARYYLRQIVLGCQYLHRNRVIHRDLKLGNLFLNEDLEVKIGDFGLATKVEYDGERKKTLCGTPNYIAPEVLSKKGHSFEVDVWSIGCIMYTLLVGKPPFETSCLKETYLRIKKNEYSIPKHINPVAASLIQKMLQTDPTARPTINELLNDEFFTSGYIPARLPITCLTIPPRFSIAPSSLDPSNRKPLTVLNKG

Structure (SMILES) | IC50 [µM]
CC(=O)Nc1ccc(Nc2ncc3c(C)nc(-c4ccccc4)n3n2)cc1 [Example 94, N-{4-[(5-Methyl-7-phenylimidazo[5,1-f][1,2,4]triazin-2-yl)amino]phenyl}acetamide] | 0.1 to 10
COc1ccc(Nc2ncc3c(C)nc(-c4cc5ccccc5n4C)n3n2)cc1 [Example 78, 5-Methyl-7-(1-methyl-1H-indol-2-yl)-N-[4-(methyloxy)phenyl]imidazo[5,1-f][1,2,4]triazin-2-amine] | > 10
COc1cc(Nc2ncc3c(C)nc(-c4cccc(/C(=C\C(N)=O)c5ccccc5)c4)n3n2)cc(OC)c1OC [Example 62, (2Z)-3-(3-{5-Methyl-2-[(3,4,5-trimethoxyphenyl)amino]-imidazo[5,1-f][1,2,4]triazin-7-yl}phenyl)-3-phenylprop-2-enamide] | 0.1 to 10
COc1cc(Nc2ncc3c(C)nc(-c4cccc(Nc5ccc(Cn6cncn6)cc5)c4)n3n2)cc(OC)c1OC [Example 64, 5-Methyl-7-(3-{[4-(1H-1,2,4-triazol-1-ylmethyl)phenyl]amino}-phenyl)-N-(3,4,5-trimethoxyphenyl)imidazo[5,1-f][1,2,4]triazin-2-amine] | 0.1 to 10
COc1ccc(Nc2ncc3c(C)nc(-c4ccsc4)n3n2)cc1 [Example 79, 5-Methyl-N-[4-(methyloxy)phenyl]-7-(3-thienyl)imidazo[5,1-f][1,2,4]triazin-2-amine] | 0.1 to 10
COc1ccc(CCN)cc1Nc1ncc2c(C)nc(-c3cccc(C(F)(F)F)c3)n2n1 [Example 53, N-[5-(2-Aminoethyl)-2-methoxyphenyl]-5-methyl-7-[3-(trifluoromethyl)phenyl]imidazo[5,1-f][1,2,4]triazin-2-amine] | < 0.1
COc1ccc(Nc2ncc3c(C)nc(-c4ccccc4F)n3n2)cc1 [Example 86, 7-(2-FluorophenylFluorophenyl)-5-methyl-N-[4-(methyloxy)phenyl]imidazo[5,1-f][1,2,4]triazin-2-amine] | 0.1 to 10
COc1ccc(CCNC(C)=O)cc1Nc1ncc2c(C)nc(-c3cccc(C(F)(F)F)c3)n2n1 [Example 52, N-{2-[4-Methoxy-3-({5-methyl-7-[3-(trifluoromethyl)phenyl]-imidazo[5,1-f][1,2,4]triazin-2-yl}amino)phenyl]ethyl}acetamide] | < 0.1
COc1cc(Nc2ncc3c(C)nc(-c4cccc(-c5ccc(CC(N)C(=O)O)cc5)c4)n3n2)cc(OC)c1OC (stereo not shown) [Example 60, 2-Amino-3-(3′-{5-methyl-2-[(3,4,5-trimethoxyphenyl)amino]imidazo-[5,1-f][1,2,4]triazin-7-yl}-1,1′-biphenyl-4-yl)propanoic acid] | 0.1 to 10
Cc1nc(-c2ccccc2)n2nc(NC3CCCCC3)ncc12 [Example 100, N-Cyclohexyl-5-methyl-7-phenylimidazo[5,1-f][1,2,4]triazin-2-amine] | > 10
COc1cc(Nc2ncc3c(C)nc(-c4cn(C)c5ccccc45)n3n2)cc(OC)c1OC [Example 35, 5-Methyl-7-(1-methyl-1H-indol-3-yl)-N-(3,4,5-trimethoxyphenyl)-imidazo[5,1-f][1,2,4]triazin-2-amine] | 0.1 to 10
COc1ccc(Nc2ncc3c(C)nc(-c4ccccc4OC)n3n2)cc1 [Example 73, 5-Methyl-7-[2-(methyloxy)phenyl]-N-[4-(methyloxy)phenyl]-imidazo[5,1-f][1,2,4]triazin-2-amine] | 0.1 to 10
COc1cc(Nc2ncc3c(C)nc(-c4ccccc4Br)n3n2)cc(OC)c1OC [Example 3] | 0.1 to 10
Cc1nc(-c2cccc(C(F)(F)F)c2)n2nc(Nc3ccc(S(N)(=O)=O)cc3)ncc12 [Example 45, 4-({5-Methyl-7-[3-(trifluoromethyl)phenyl]imidazo[5,1-f][1,2,4]triazin-2-yl}amino)benzenesulfonamide] | 0.1 to 10
COc1cc(Nc2ncc3c(C)nc(-c4cccc(Nc5ccc(-n6ccnc6)cc5)c4)n3n2)cc(OC)c1OC [Example 65, 7-(3-{[4-(1H-Imidazol-1-yl)phenyl]amino}phenyl)-5-nv-5-methyl-N-(3,4,5-trimethoxyphenyl)imidazo[5,1-f][1,2,4]triazin-2-amine] | > 10
COc1cc(Nc2ncc3c(C)nc(-c4cccc(N)c4)n3n2)cc(OC)c1OC [Example 31, 7-(3-Aminophenyl)-5-methyl-N-(3,4,5-trimethoxyphenyl)imidazo-[5,1-f][1,2,4]triazin-2-amine] | < 0.1
COc1cccc(Nc2ncc3c(C)nc(-c4ccccc4)n3n2)c1 [Example 106, 5-Methyl-N-[3-(methyloxy)phenyl]-7-phenylimidazo[5,1-f][1,2,4]triazin-2-amine] | 0.1 to 10

Structure (SMILES) | IC50 [µM]
Cc1nc(-c2ccccc2)n2nc(NC3CCOCC3)ncc12 [Example 101, 5-Methyl-7-phenyl-N-(tetrahydro-2H-pyran-4-yl)imidazo[5,1-f][1,2,4]triazin-2-amine] | > 10
COc1ccc(Nc2ncc3c(C)nc(-c4ccoc4)n3n2)cc1 [Example 80, 7-(3-Furanyl)-5-methyl-N-[4-(methyloxy)phenyl]imidazo-[5,1-f][1,2,4]triazin-2-amine] | 0.1 to 10
CCS(=O)(=O)c1ccc(OC)c(Nc2cccc(-c3nc(C)c4cnc(Nc5cc(OC)c(OC)c(OC)c5)nn34)c2)c1 [Example 63, 7-(3-{[5-(Ethylsulfonyl)-2-methoxyphenyl]amino}phenyl)-5-methyl-N-(3,4,5-trimethoxyphenyl)imidazo[5,1-f][1,2,4]triazin-2-amine] | > 10
COc1cc(Nc2ncc3c(C)nc(-c4ccccc4Nc4cccc(C(F)(F)F)c4)n3n2)cc(OC)c1OC [Example 39, 5-Methyl-7-(2-{[3-(trifluoromethyl)phenyl]amino}phenyl)-N-(3,4,5-trimethoxyphenyl)imidazo[5,1-f][1,2,4]triazin-2-amine] | > 10
COc1cc(Nc2ncc3c(C)nc(-c4ccc5[nH]ccc5c4)n3n2)cc(OC)c1OC [Example 37, 7-(1H-Indol-5-yl)-5-methyl-N-(3,4,5-trimethoxyphenyl)imidazo-[5,1-f][1,2,4]triazin-2-amine] | 0.1 to 10
Cc1nc(-c2ccccc2)n2nc(Nc3ccccc3)ncc12 [Example 105, 5-Methyl-N,7-diphenylimidazo[5,1-f][1,2,4]triazin-2-amine] | 0.1 to 10
COc1cc(Nc2ncc3c(C)nc(-c4cccc(Nc5ccc(N6CCOCC6)c(Cl)c5)c4)n3n2)cc(OC)c1OC [Example 66, 7-{3-[(3-Chloro-4-morpholin-4-ylphenyl)amino]phenyl}-5-methyl-N-(3,4,5-trimethoxyphenyl)imidazo[5,1-f][1,2,4]triazin-2-amine] | 0.1 to 10
Cc1nc(-c2cccc(C(F)(F)F)c2)n2nc(Nc3ccc(O)cc3)ncc12 [Example 49, 4-({5-Methyl-7-[3-(trifluoromethyl)phenyl]imidazo[5,1-f][1,2,4]triazin-2-yl}amino)phenol] | < 0.1
COc1cc(Nc2ncc3c(C)nc(-c4ccccc4)n3n2)cc(OC)c1 [Example 93, N-[3,5-Bis(methyloxy)phenyl]-5-methyl-7-phenylimidazo[5,1-f][1,2,4]triazin-2-amine] | 0.1 to 10
COc1ccc(Nc2ncc3c(C)nc(-c4ccccc4Cl)n3n2)cc1 [Example 75, 7-(2-Chlorophenyl)-5-methyl-N-[4-(methyloxy)phenyl]imidazo[5,1-f][1,2,4]triazin-2-amine] | 0.1 to 10
CC(=O)N1CCc2cc(Nc3ncc4c(C)nc(-c5ccccc5)n4n3)ccc21 [Example 99, N-(1-Acetyl-2,3-dihydro-1H-indol-5-yl)-5-methyl-7-phenylimidazo[5,1-f][1,2,4]triazin-2-amine] | 0.1 to 10
Cc1nc(-c2ccccc2)n2nc(Nc3ccc(S(N)(=O)=O)cc3)ncc12 [Example 20, 4-[(5-Methyl-7-phenylimidazo[5,1-f][1,2,4]triazin-2-yl)amino]benzenesulfonamide] | 0.1 to 10
COc1cc(Nc2ncc3c(C)nc(-c4ccc5c(c4)OCO5)n3n2)cc(OC)c1OC [Example 28, 7-(1,3-Benzodioxol-5-yl)-5-methyl-N-(3,4,5-trimethoxyphenyl)-imidazo[5,1-f][1,2,4]triazin-2-amine] | 0.1 to 10
COc1cc(Nc2ncc3c(C)nc(-c4cccc(-c5ccccc5C(F)(F)F)c4)n3n2)cc(OC)c1OC [Example 61, 5-Methyl-7-[2′-(trifluoromethyl)-1,1′-biphenyl-3-yl]-N-(3,4,5-trimethoxyphenyl)imidazo[5,1-f][1,2,4]triazin-2-amine] | 0.1 to 10
COc1cc(Nc2ncc3c(C)nc(-c4ccc([N+](=O)[O-])[nH]4)n3n2)cc(OC)c1OC [Example 33, 5-Methyl-7-(5-nitro-1H-pyrrol-2-yl)-N-(3,4,5-trimethoxyphenyl)-imidazo[5,1-f][1,2,4]triazin-2-amine] | 0.1 to 10
COc1cc(Nc2ncc3c(C)nc(-c4ccccc4Sc4ccccc4C#N)n3n2)cc(OC)c1OC [Example 38, 2-[(2-{5-Methyl-2-[(3,4,5-trimethoxyphenyl)amino]imidazo[5,1-f][1,2,4]triazin-7-yl}phenyl)thio]benzonitrile] | 0.1 to 10
COc1cc(Nc2ncc3c(C)nc(-c4ccc(Br)s4)n3n2)cc(OC)c1OC [Example 13, 7-(5-Bromothien-2-yl)-5-methyl-N-(3,4,5-trimethoxyphenyl)imidazo-[5,1-f][1,2,4]triazin-2-amine] | 0.1 to 10
